Each compound was assayed on GST-Bcl-2 (assay: TR-FRET binding assay, Bcl-2). Conditions: TR-FRET Ki values.
In short: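 Compounds serially diluted in DMSO from 50 μM (2× starting concentration, 10% DMSO), mixed with GST-tagged protein, F-Bak peptide probe and Tb-labeled antibody, incubated 3 h at room temperature.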
With `CC1(C)CCC(CN2CCN(c3ccc(C(=O)NS(=O)(=O)c4ccc(NC5CCC(F)(F)CC5)c([N+](=O)[O-])c4)c(Oc4ccc5[nH]ccc5c4)c3)CC2)=C(c2ccc(Cl)cc2)C1` [EXAMPLE 305, 4-(4-{[2-(4-chlorophenyl)-4,4-dimethylcyclohex-1-en-1-yl]methyl}piperazin-1-yl)-N-({4-[(4,4-difluorocyclohexyl)amino]-3-nitrophenyl}sulfonyl)-2-(1H-indol-5-yloxy)benzamide] the “Binding selectivity ratio (Bcl-XL Ki/Bcl-2 Ki)” value (“Binding selectivity ratio” for short) was >179.2.
For `CC(=O)N1CCC(Nc2ccc(S(=O)(=O)NC(=O)c3ccc(N4CCN(CC5=C(c6ccc(Cl)cc6)CC(C)(C)CC5)CC4)cc3Oc3cccc4[nH]ccc34)cc2[N+](=O)[O-])CC1` [EXAMPLE 337, N-({4-[(1-acetylpiperidin-4-yl)amino]-3-nitrophenyl}sulfonyl)-4-(4-{[2-(4-chlorophenyl)-4,4-dimethylcyclohex-1-en-1-yl]methyl}piperazin-1-yl)-2-(1H-indol-4-yloxy)benzamide], the “Binding selectivity ratio” value was >1233.3.
In the case of `CC1(C)CCC(CN2CCN(c3ccc(C(=O)NS(=O)(=O)c4ccc(NC5CCN(CC(F)(F)F)CC5)c([N+](=O)[O-])c4)c(Oc4cccc5[nH]ccc45)c3)CC2)=C(c2ccc(Cl)cc2)C1` [Example 108, 4-(4-{[2-(4-chlorophenyl)-4,4-dimethylcyclohex-1-en-1-yl]methyl}piperazin-1-yl)-2-(1H-indol-4-yloxy)-N-[(3-nitro-4-{[1-(2,2,2-trifluoroethyl)piperidin-4-yl]amino}phenyl)sulfonyl]benzamide], the “Binding selectivity ratio” value is reported as 25.5.
In the case of `COCCOCCN1CCO[C@H](CNc2ccc(S(=O)(=O)NC(=O)c3ccc(N4CCN(CC5=C(c6ccc(Cl)cc6)CC(C)(C)CC5)CC4)cc3Oc3cccc4[nH]cnc34)cc2[N+](=O)[O-])C1` [EXAMPLE 455, 2-(1H-benzimidazol-4-yloxy)-4-(4-{[2-(4-chlorophenyl)-4,4-dimethylcyclohex-1-en-1-yl]methyl}piperazin-1-yl)-N-({4-[({(2R)-4-[2-(2-methoxyethoxy)ethyl]morpholin-2-yl}methyl)amino]-3-nitrophenyl}sulfonyl)benzamide], the “Binding selectivity ratio” value is reported as 139.4.
`CC1(C)CCC(CN2CCN(c3ccc(C(=O)NS(=O)(=O)c4ccc(N[C@H]5CC[C@H](N6CCOCC6)CC5)c([N+](=O)[O-])c4)c(Oc4cccc5[nH]ncc45)c3)CC2)=C(c2ccc(Cl)cc2)C1` [EXAMPLE 402, Trans-4-(4-{[2-(4-chlorophenyl)-4,4-dimethylcyclohex-1-en-1-yl]methyl}piperazin-1-yl)-2-(1H-indazol-4-yloxy)-N-({4-[(4-morpholin-4-ylcyclohexyl)amino]-3-nitrophenyl}sulfonyl)benzamide] was tested, and the “Binding selectivity ratio” value was 137.4.
For `CC1(C)CCC(CN2CCN(c3ccc(C(=O)NS(=O)(=O)c4ccc(NC5CCN(Cc6nccs6)CC5)c([N+](=O)[O-])c4)c(Oc4ccc5[nH]ccc5c4)c3)CC2)=C(c2ccc(Cl)cc2)C1` [EXAMPLE 230, 4-(4-{[2-(4-chlorophenyl)-4,4-dimethylcyclohex-1-en-1-yl]methyl}piperazin-1-yl)-2-(1H-indol-5-yloxy)-N-[(3-nitro-4-{[1-(1,3-thiazol-2-ylmethyl)piperidin-4-yl]amino}phenyl)sulfonyl]benzamide], the “Binding selectivity ratio” value was >74.8.
In the case of `CC1(C)CCC(CN2CCN(c3ccc(C(=O)NS(=O)(=O)c4ccc(NC5CCN(CCCC(F)(F)F)CC5)c([N+](=O)[O-])c4)c(Oc4ccc5[nH]ccc5c4)c3)CC2)=C(c2ccc(Cl)cc2)C1` [EXAMPLE 216, 4-(4-{[2-(4-chlorophenyl)-4,4-dimethylcyclohex-1-en-1-yl]methyl}piperazin-1-yl)-2-(1H-indol-5-yloxy)-N-[(3-nitro-4-{[1-(4,4,4-trifluorobutyl)piperidin-4-yl]amino}phenyl)sulfonyl]benzamide], the “Binding selectivity ratio” value is reported as >1073.2.
In the case of `CC1(C)CCC(CN2CCN(c3ccc(C(=O)NS(=O)(=O)c4ccc(NC5CCN(c6nccs6)CC5)c([N+](=O)[O-])c4)c(Oc4ccc5[nH]ccc5c4)c3)CC2)=C(c2ccc(Cl)cc2)C1` [EXAMPLE 212, 4-(4-{[2-(4-chlorophenyl)-4,4-dimethylcyclohex-1-en-1-yl]methyl}piperazin-1-yl)-2-(1H-indol-5-yloxy)-N-[(3-nitro-4-{[1-(1,3-thiazol-2-yl)piperidin-4-yl]amino}phenyl)sulfonyl]benzamide], the “Binding selectivity ratio” value is reported as >895.1.
In the case of `CC1(C)CCC(CN2CCN(c3ccc(C(=O)NS(=O)(=O)c4ccc(NCC5CCOCC5)c(C(F)(F)F)c4)c(Oc4ccc5[nH]ccc5c4)c3)CC2)=C(c2ccc(Cl)cc2)C1` [EXAMPLE 277, 4-(4-{[2-(4-chlorophenyl)-4,4-dimethylcyclohex-1-en-1-yl]methyl}piperazin-1-yl)-2-(1H-indol-5-yloxy)-N-{[4-[(tetrahydro-2H-pyran-4-ylmethyl)amino]-3-(trifluoromethyl)phenyl]sulfonyl}benzamide], the “Binding selectivity ratio” value is reported as >22.2.
For `O=C(NS(=O)(=O)c1ccc(NCCCN2CCOCC2)c([N+](=O)[O-])c1)c1ccc(N2CCN(Cc3ccccc3-c3ccc(Cl)cc3)CC2)cc1Oc1cccc2[nH]ccc12` [Example 58, 4-{4-[(4′-chloro-1,1′-biphenyl-2-yl)methyl]piperazin-1-yl}-2-(1H-indol-4-yloxy)-N-({4-[(3-morpholin-4-ylpropyl)amino]-3-nitrophenyl}sulfonyl)benzamide], the “Binding selectivity ratio” value was 265.5.
In the case of `CC1(C)CCC(CN2CCN(c3ccc(C(=O)NS(=O)(=O)c4cnc(OCCC5CCCO5)c(Cl)c4)c(Oc4cccc5[nH]ncc45)c3)CC2)=C(c2ccc(Cl)cc2)C1` (stereo not shown) [EXAMPLE 461, 4-(4-{[2-(4-chlorophenyl)-4,4-dimethylcyclohex-1-en-1-yl]methyl}piperazin-1-yl)-N-{[5-chloro-6-(2-tetrahydrofuran-2-ylethoxy)pyridin-3-yl]sulfonyl}-2-(1H-indazol-4-yloxy)benzamide], the “Binding selectivity ratio” value is reported as 39.44.
For `COCCCNc1ccc(S(=O)(=O)NC(=O)c2ccc(N3CCN(CC4=C(c5ccc(Cl)cc5)CC(C)(C)CC4)CC3)cc2Oc2cccc3[nH]ccc23)cc1[N+](=O)[O-]` [EXAMPLE 318, 4-(4-{[2-(4-chlorophenyl)-4,4-dimethylcyclohex-1-en-1-yl]methyl}piperazin-1-yl)-2-(1H-indol-4-yloxy)-N-({4-[(3-methoxypropyl)amino]-3-nitrophenyl}sulfonyl)benzamide], the “Binding selectivity ratio” value was 102.6.
For `CN1CC(Nc2ccc(S(=O)(=O)NC(=O)c3ccc(N4CCN(CC5=C(c6ccc(Cl)cc6)CC(C)(C)CC5)CC4)cc3Oc3ccc4[nH]ccc4c3)cc2[N+](=O)[O-])CC1=O` (stereo not shown) [EXAMPLE 281, 4-(4-{[2-(4-chlorophenyl)-4,4-dimethylcyclohex-1-en-1-yl]methyl}piperazin-1-yl)-2-(1H-indol-5-yloxy)-N-({4-[(1-methyl-5-oxopyrrolidin-3-yl)amino]-3-nitrophenyl}sulfonyl)benzamide], the “Binding selectivity ratio” value was 1558.9.
For `CN(C)C1CCC(Nc2ccc(S(=O)(=O)NC(=O)c3ccc(N4CCN(CC5=C(c6ccc(Cl)cc6)CC(C)(C)CC5)CC4)cc3Oc3cccc4[nH]ccc34)cc2[N+](=O)[O-])CC1` (stereo not shown) [EXAMPLE 202, 4-(4-{[2-(4-chlorophenyl)-4,4-dimethylcyclohex-1-en-1-yl]methyl}piperazin-1-yl)-N-[(4-{[4-(dimethylamino)cyclohexyl]amino}-3-nitrophenyl)sulfonyl]-2-(1H-indol-4-yloxy)benzamide], the “Binding selectivity ratio” value was 97.1.
In the case of `CC1(C)CCC(CN2CCN(c3ccc(C(=O)NS(=O)(=O)c4ccc(NN5CCCCC5)c([N+](=O)[O-])c4)c(Oc4cccc5[nH]ccc45)c3)CC2)=C(c2ccc(Cl)cc2)C1` [EXAMPLE 283, 4-(4-{[2-(4-chlorophenyl)-4,4-dimethylcyclohex-1-en-1-yl]methyl}piperazin-1-yl)-2-(1H-indol-4-yloxy)-N-{[3-nitro-4-(piperidin-1-ylamino)phenyl]sulfonyl}benzamide], the “Binding selectivity ratio” value is reported as >13.9.
`CC1(C)CCC(CN2CCN(c3ccc(C(=O)NS(=O)(=O)c4cnc(OC[C@@H]5CCN(C(CF)CF)C5)c(Cl)c4)c(Oc4cccc5[nH]ncc45)c3)CC2)=C(c2ccc(Cl)cc2)C1` [EXAMPLE 444, N-{[5-chloro-6-({(3R)-1-[2-fluoro-1-(fluoromethyl)ethyl]pyrrolidin-3-yl}methoxy)pyridin-3-yl]sulfonyl}-4-(4-{[2-(4-chlorophenyl)-4,4-dimethylcyclohex-1-en-1-yl]methyl}piperazin-1-yl)-2-(1H-indazol-4-yloxy)benzamide] was tested, and the “Binding selectivity ratio” value was 727.625.
With `CC1(C)CCC(CN2CCN(c3ccc(C(=O)NS(=O)(=O)c4ccc(NCC5CCS(=O)(=O)CC5)c([N+](=O)[O-])c4)c(Oc4cccc5[nH]ccc45)c3)CC2)=C(c2ccc(Cl)cc2)C1` [EXAMPLE 301, 4-(4-{[2-(4-chlorophenyl)-4,4-dimethylcyclohex-1-en-1-yl]methyl}piperazin-1-yl)-N-[(4-{[(1,1-dioxidotetrahydro-2H-thiopyran-4-yl)methyl]amino}-3-nitrophenyl)sulfonyl]-2-(1H-indol-4-yloxy)benzamide] the “Binding selectivity ratio” value was >2268.0.
`CC1(C)CCC(CN2CCN(c3ccc(C(=O)NS(=O)(=O)c4ccc(NC5(CO)CCOCC5)c([N+](=O)[O-])c4)c(Oc4cccc5[nH]ccc45)c3)CC2)=C(c2ccc(Cl)cc2)C1` [EXAMPLE 241, 4-(4-{[2-(4-chlorophenyl)-4,4-dimethylcyclohex-1-en-1-yl]methyl}piperazin-1-yl)-N-[(4-{[4-(hydroxymethyl)tetrahydro-2H-pyran-4-yl]amino}-3-nitrophenyl)sulfonyl]-2-(1H-indol-4-yloxy)benzamide] was tested, and the “Binding selectivity ratio” value was >108.3.
For `CN(C)CC(=O)N1CC[C@@H](Nc2ccc(S(=O)(=O)NC(=O)c3ccc(N4CCN(CC5=C(c6ccc(Cl)cc6)CC(C)(C)CC5)CC4)cc3Oc3cccc4[nH]cnc34)cc2[N+](=O)[O-])C1` [EXAMPLE 430, 2-(1H-benzimidazol-4-yloxy)-4-(4-{[2-(4-chlorophenyl)-4,4-dimethylcyclohex-1-en-1-yl]methyl}piperazin-1-yl)-N-[(4-{[(3R)-1-(N,N-dimethylglycyl)pyrrolidin-3-yl]amino}-3-nitrophenyl)sulfonyl]benzamide], the “Binding selectivity ratio” value was 99.767.
